Reference: PMC9765437, “Antibiotic Acyldepsipeptides Stimulate the Streptomyces Clp-ATPase/ClpP Complex for Accelerated Proteolysis” (mBio, 2022)
Starred links: 1 amine or outer side, 2 acyl side, 3 side chain; linkers in the order of their positions; H or OH if unused. Positions of bridges follow the written chain, without caps; N, C: chain ends. Non-standard residues stand in square brackets, D forms with d. Residues, ends and D or L forms follow the SMILES beside them. *: point of attachment. Octatrienoyl(2E,4E,6E) = C/C=C/C=C/C=C/C(=O)*; Pro(4R-Me) = C[C@H]1CN[C@H](C(=O)O)C1; AMC = Cc1cc(=O)oc2cc(N*)ccc12; Suc = O=C(CCC(=O)[*:2])[*:1]; NMeA = CN[C@@H](C)C(=O)O

Key:
ClpP1P2 = target: T1, ClpP1P2 (Streptomyces hawaiiensis, UniProt A0A6G5RDH7); assay: peptidase activation assay, Suc-LY-AMC; type: biochemical; conditions: activator binding via ClpP1; 10 μM ADEP1, 4 μM total ClpP, pH 7.5, 30°C
T1 construct: gene clpP; untagged full-length ClpP1 mixed with C-terminally His6-tagged full-length ClpP2, expressed in E. coli SG1146a; heterotetradecamer of two homoheptameric rings; with ATP-dependent Clp protease proteolytic subunit 2

ClpC1 = target: T2, ClpC1 (Streptomyces hawaiiensis, UniProt A0A6G5RIJ6); conditions: 100 nM ATP, beta-casein, 30°C; ClpC1 alone and with ClpP1P2; unaffected by ADEP1
T2 construct: gene CEB94_23085
T2 sequence (A0A6G5RIJ6 1-841): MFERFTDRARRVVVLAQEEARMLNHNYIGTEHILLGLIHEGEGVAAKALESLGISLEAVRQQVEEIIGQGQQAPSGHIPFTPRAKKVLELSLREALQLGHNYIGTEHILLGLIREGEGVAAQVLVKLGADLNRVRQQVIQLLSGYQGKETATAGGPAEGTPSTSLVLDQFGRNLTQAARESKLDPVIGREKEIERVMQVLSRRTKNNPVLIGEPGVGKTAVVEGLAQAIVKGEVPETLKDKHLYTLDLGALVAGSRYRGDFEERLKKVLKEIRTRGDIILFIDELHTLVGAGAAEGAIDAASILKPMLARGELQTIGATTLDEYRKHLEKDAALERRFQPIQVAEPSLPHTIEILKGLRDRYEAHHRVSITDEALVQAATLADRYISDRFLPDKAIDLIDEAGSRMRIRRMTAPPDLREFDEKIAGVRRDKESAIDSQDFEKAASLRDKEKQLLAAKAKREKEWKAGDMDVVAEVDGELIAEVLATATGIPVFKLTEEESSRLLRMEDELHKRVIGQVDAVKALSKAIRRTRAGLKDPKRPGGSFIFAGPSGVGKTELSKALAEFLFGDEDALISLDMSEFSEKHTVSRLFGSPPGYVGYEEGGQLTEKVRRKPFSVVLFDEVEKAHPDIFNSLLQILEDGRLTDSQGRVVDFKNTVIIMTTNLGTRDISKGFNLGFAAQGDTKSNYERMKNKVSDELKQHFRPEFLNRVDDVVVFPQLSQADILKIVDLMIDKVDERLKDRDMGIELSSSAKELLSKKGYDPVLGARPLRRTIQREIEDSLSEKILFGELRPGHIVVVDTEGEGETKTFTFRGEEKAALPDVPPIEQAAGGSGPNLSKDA

ClpP1 = target: T3, ClpP1 (Streptomyces hawaiiensis, UniProt A0A6G5RDH7); assay: fluorogenic peptidase assay; type: biochemical; conditions: with ADEP1 as activator; 100 μM substrate, pH 7.5, 30°C
T3 construct: gene clpP; full-length unprocessed, untagged, expressed in E. coli SG1146a (clpP deletion), anion exchange; ADEP-induced processing between G24 and P25
T3 sequence (A0A6G5RDH7 1-219): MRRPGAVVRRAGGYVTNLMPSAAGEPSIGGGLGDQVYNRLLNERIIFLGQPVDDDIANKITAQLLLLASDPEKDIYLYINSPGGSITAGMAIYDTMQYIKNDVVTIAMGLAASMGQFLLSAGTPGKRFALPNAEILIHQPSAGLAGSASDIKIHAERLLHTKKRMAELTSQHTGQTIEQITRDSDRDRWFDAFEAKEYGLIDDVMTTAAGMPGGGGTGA

[1] = target: the molecule itself; assay: native gel or EMSA; native PAGE without cross-linker, with ADEP1: ClpP1 and ClpP2 (10 μM each) with 60 μM or 25 μM ADEP1 (ClpP:ADEP1 1:3 or 1:1.25), 3 h at 30°C; immunoblot with anti-ClpP1 or anti-6His
[2] = target: the molecule itself; assay: SEC; Superdex 200 Increase 10/300 GL; 80 μM protein, DMSO (no ADEP1), 30 min at 30°C; buffer GF (50 mM HEPES-KOH, 150 mM KCl, 20 mM MgCl2, 10% glycerol, 1 mM DTT, pH 7.5)

C/C=C/C=C/C=C/C(=O)N[C@@H](Cc1ccccc1)C(=O)N[C@H]1COC(=O)[C@@H]2C[C@@H](C)CN2C(=O)[C@H](C)NC(=O)[C@H](C)N(C)C(=O)[C@@H]2CCCN2C1=O [ADEP1] ({Octatrienoyl(2E,4E,6E)}-FSP[NMeA]A[Pro(4R-Me)]; ester 2-C)
peptidase activation assay, Suc-LY-AMC (ClpP1P2): ADEP1 clearly induced the hydrolysis of Suc-LY-AMC by either ClpP1 alone or by the mixed complex

Nc1ncnc2c1ncn2[C@@H]1O[C@H](COP(=O)(O)OP(=O)(O)OP(=O)(O)O)[C@@H](O)[C@H]1O [ATP]
ADP-Glo ATP turnover assay (ClpC1): directly measured the turnover of ATP to ADP by ClpC1 in casein degradation assays

Cc1cc(=O)oc2cc(NC(=O)[C@H](Cc3ccc(O)cc3)NC(=O)[C@H](CC(C)C)NC(=O)CCC(=O)O)ccc12 [Suc-LY-AMC] (Suc-Leu-Tyr-{AMC})
fluorogenic peptidase assay (ClpP1): ADEP1 clearly induced the hydrolysis of Suc-LY-AMC by either ClpP1 alone

B1: ClpP2 of Streptomyces hawaiiensis NRRL 15010, C-terminally His6-tagged (enzyme, UniProt A0A5B9BIX9 1-235, looked up)
chain: MNQFPGSGIYDRMHAVQDMSASQGRYTGPQAESRYIIPRFVERTSQGIREYDPYAKLFEERVIFLGVQIDDASANDVMAQLLCLESMDPDRDISVYINSPGGSFTALTAIYDTMQYVKPDVQTVCMGQAASAAAVLLAAGTPGKRMALPNARVLIHQPYSETGRGQVSDLEIAANEILRMRSQLEDMLAKHSTTPVEKIREDIERDKILTAEDALSYGLIDQVISTRKMDNSSLR
notes: ClpP2, Clp protease proteolytic subunit 2 of Streptomyces hawaiiensis NRRL 15010, orf CEB94_14105 of GenBank CP021978.1; from the first start codon, unprocessed; also called ClpP2-His6; ClpP2His; source: E. coli SG1146a (ΔclpP), purified (Ni-NTA); also co-expressed with ClpP1 from pETDUET-1, in lysate; not shown: His6, C-terminal, kept
stoichiometry N [1]: 7

B2: ClpP2 of Streptomyces hawaiiensis NRRL 15010, untagged (enzyme, UniProt A0A5B9BIX9 1-235, looked up)
chain: B1 chain
notes: ClpP2 of Streptomyces hawaiiensis NRRL 15010, orf CEB94_14105 of GenBank CP021978.1; unprocessed; calculated mass of the heptamer 182.2 kDa; also called native ClpP2; source: E. coli SG1146a (ΔclpP), purified (anion-exchange chromatography)
stoichiometry N [2]: 7
